How the values were obtained:
EZH2 = molecular target: T1, EZH2 (Homo sapiens, UniProt Q15910); assay: Immunoblot of A1847 cells treated with GSK126 (H3K27Me3 as readout of EZH2 activity); format: cell-based; design: inhibition of the enzymatic activity of EZH2 as indicated by the decrease in H3K27Me3 levels: dose or concentration left out as unconfirmed; conditions: 72 hours
T1 construct: endogenous in cells; host or cells: A1847 cells (CARM1-high epithelial ovarian cancer line)
Protocol: FIG. 32 illustrates that the EZH2 inhibitor GSK126 decreases H3K27Me3 levels in a dose-dependent manner. A1847 cells were treated with the indicated concentrations of GSK126 for 72 hours and examined for expression of the indicated proteins by immunoblot. Expression of histone H3 and 3-actin was used as a loading control.

TIMP3 = assay: qRT-PCR of BAF155Me target gene in cells; format: cell-based, human; conditions: parental and CARM1 knockout A1847 cells, 10 μM GSK126
Protocol: FIG. 57 illustrates the relative mRNA expression of BAF155Me target gene TIMP3, which was determined by qRT-PCR. Parental control and CARM1 knockout A1847 cells were treated with 10 μM GSK126 or vehicle controls. *p<0.001. Mean of three independent experiments with SEM.
RNA was isolated by RNeasy Mini Kit (Qiagen). mRNA relative expression for DAB2, DLC1, and PMAIP was determined using SYBR green 1-step iScript (Bio-Rad) with a Life Technologies QuantStudio 3. The primers were: 5′-[…]-3′ (DAB2 forward (SEQ ID NO: 2)) and 5′-[…]-3′ (DAB2 reverse (SEQ ID NO: 3)); 5′-[…]-3′ (DLC1 forward (SEQ ID NO: 4)) and 5′-[…]-3′ (DLC1 reverse (SEQ ID NO: 5)); 5′-[…]-3′ (NOXA forward (SEQ ID NO: 6)) and 5′-[…]-3′ (NOXA reverse (SEQ ID NO: 7)); and 5′-[…]-3′ (TIMP3 forward (SEQ ID NO: 8)) and 5′-[…]-3′ (TIMP3 reverse (SEQ ID NO: 9)).

T1 sequence (Q15910 whole entry): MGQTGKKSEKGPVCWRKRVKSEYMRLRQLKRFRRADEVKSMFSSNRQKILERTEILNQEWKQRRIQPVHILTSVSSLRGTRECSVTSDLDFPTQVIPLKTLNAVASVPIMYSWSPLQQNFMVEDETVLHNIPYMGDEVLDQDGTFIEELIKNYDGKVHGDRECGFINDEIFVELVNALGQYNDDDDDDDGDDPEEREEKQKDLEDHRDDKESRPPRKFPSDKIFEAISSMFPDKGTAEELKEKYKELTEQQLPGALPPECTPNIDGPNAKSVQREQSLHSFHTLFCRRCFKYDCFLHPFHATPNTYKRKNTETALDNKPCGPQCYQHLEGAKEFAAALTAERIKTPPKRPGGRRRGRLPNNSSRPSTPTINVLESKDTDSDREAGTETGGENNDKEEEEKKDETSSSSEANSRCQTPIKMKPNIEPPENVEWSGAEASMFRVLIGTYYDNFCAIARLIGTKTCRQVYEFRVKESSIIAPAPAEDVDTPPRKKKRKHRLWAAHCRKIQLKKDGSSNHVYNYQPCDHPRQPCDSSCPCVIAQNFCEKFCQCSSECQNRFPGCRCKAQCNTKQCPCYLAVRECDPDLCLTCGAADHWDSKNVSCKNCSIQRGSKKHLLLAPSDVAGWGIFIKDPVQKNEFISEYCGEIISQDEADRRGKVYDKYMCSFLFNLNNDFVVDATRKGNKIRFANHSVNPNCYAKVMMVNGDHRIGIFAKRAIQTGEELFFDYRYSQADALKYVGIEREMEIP
T1 sequence (Q15022 whole entry partner): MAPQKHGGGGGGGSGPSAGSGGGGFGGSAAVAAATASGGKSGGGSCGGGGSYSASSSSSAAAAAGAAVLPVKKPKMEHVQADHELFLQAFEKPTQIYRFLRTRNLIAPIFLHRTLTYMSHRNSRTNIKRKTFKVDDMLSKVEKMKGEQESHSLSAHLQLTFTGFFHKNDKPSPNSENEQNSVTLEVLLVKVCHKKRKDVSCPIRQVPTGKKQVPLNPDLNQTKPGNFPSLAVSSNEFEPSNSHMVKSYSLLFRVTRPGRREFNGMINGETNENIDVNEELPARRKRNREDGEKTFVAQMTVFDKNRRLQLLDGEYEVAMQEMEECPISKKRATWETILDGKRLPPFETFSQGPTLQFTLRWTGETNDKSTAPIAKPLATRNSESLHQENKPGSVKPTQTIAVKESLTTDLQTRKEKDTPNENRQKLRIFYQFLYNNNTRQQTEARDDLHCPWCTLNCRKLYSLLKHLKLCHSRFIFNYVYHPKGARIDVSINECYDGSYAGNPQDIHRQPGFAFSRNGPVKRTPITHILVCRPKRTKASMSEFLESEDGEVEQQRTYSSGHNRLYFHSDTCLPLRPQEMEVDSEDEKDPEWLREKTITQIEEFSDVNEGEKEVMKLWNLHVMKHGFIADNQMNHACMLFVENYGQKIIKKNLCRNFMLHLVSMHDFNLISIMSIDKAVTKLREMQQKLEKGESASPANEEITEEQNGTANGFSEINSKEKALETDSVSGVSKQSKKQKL
T1 sequence (O75530 whole entry partner): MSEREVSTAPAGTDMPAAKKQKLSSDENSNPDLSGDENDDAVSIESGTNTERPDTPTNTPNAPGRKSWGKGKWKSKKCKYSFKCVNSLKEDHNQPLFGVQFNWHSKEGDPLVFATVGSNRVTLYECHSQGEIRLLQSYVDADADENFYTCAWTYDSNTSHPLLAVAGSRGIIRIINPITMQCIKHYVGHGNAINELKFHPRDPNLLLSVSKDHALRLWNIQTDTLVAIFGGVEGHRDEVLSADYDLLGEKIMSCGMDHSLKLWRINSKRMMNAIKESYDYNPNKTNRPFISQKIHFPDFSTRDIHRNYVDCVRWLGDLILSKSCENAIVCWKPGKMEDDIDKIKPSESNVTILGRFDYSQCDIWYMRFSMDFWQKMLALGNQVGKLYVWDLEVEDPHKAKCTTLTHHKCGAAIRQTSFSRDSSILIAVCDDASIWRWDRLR

Question: Which EZH2 protein levels (EZH2) does the source give for CC[C@H](C)n1cc(C)c2c(C(=O)NCc3c(C)cc(C)[nH]c3=O)cc(-c3ccc(N4CCNCC4)nc3)cc21 [GSK126, (S)-1-(sec-butyl)-N-((4,6-dimethyl-2-oxo-1,2-dihydropyridin-3-yl)methyl)-3-methyl-6-(6-(piperazin-1-yl)pyridin-3-yl)-1H-indole-4-carboxamide] here?
Answer: Its EZH2 protein levels is “did not affect EZH2 protein levels”.

Question: What about the “expression of CARM1” value (EZH2) of the same compound?
Answer: Its value is “did not affect the expression of CARM1”.

Question: And the “inhibition of the enzymatic activity of EZH2 as indicated by the decrease in H3K27Me3 levels” value (EZH2)?
Answer: The value was > 95%.

Question: And the H3K27Me3 levels (EZH2; indicated concentrations)?
Answer: The H3K27Me3 levels was “dose-dependent decrease in H3K27Me3 levels”.

Question: And the “expression of BAF155Me target gene TIMP3” value (TIMP3)?
Answer: The value was “downregulated by CARM KO but not by EZH2 inhibitor GSK126”.
